According to article PMC4579064 (Toxicology and applied pharmacology, 2015):

Tests used:
CYP2C19 = CYP2C19 (Homo sapiens, UniProt P33261); assay: recombinant CYP activity with fluorogenic substrate; type: biochemical
liver Ces = assay: liver carboxylesterase; type: in vivo, rat; conditions: menadione 20 min after parathion
CYP1A2 [1] = molecular target: T1, CYP1A2 (Homo sapiens, UniProt P05177)
T1 sequence (P05177 2-516 limits assumed): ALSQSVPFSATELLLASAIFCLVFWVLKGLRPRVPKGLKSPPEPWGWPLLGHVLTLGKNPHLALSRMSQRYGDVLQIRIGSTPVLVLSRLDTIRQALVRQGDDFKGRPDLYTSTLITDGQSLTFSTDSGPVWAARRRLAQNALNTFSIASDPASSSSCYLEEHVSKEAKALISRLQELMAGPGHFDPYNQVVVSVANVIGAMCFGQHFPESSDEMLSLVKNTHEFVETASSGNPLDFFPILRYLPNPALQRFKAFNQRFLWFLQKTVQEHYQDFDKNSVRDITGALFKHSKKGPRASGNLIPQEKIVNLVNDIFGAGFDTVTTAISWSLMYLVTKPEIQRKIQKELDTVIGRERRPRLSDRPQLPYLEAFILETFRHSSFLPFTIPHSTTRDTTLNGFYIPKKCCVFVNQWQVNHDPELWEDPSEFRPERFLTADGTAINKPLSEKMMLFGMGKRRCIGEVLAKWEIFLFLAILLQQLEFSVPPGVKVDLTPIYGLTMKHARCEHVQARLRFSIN

brain ChE = brain ChE activity in parathion-treated rats; type: in vivo, rat; conditions: parathion 8 mg/kg oral, menadione 40 mg/kg ip 20 min after parathion, 60 min
CYP1B1 = molecular target: T2, CYP1B1 (Homo sapiens, UniProt Q16678); assay: recombinant CYP activity with fluorogenic substrate; type: biochemical
T2 sequence (Q16678 1-543): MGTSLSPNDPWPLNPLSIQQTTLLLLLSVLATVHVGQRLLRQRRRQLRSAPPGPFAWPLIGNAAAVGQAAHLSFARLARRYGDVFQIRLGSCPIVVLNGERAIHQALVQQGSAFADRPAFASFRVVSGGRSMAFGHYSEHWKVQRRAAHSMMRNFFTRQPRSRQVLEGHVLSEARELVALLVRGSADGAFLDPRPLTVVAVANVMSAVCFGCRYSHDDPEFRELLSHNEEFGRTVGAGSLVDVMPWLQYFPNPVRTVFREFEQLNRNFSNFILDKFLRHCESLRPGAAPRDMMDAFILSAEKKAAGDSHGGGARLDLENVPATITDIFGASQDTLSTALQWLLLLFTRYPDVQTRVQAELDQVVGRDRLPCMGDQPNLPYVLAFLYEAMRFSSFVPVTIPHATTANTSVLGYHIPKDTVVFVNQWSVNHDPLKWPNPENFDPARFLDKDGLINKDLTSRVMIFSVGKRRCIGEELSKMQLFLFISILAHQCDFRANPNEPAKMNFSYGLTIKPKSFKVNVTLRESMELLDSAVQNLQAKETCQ
T2 sequence (P16435 2-677 partner): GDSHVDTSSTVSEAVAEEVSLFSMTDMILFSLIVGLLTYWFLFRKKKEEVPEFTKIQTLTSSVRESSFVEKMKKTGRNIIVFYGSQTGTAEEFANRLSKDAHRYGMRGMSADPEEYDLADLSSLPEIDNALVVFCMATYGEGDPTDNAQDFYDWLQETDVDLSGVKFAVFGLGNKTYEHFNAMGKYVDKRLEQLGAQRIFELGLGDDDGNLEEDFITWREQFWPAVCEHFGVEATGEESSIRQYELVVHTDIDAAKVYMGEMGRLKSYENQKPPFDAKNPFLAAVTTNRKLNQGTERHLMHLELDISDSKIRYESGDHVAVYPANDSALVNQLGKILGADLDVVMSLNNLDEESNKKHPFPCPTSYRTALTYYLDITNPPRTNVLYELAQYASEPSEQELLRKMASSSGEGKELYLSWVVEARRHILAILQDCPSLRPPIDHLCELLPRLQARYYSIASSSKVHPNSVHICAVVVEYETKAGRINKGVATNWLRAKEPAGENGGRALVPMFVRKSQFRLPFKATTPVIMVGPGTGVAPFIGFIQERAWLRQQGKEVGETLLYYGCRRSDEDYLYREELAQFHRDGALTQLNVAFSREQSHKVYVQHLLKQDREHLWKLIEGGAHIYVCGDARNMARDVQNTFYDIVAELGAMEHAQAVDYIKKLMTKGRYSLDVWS

CYP3A5 = CYP3A5 (Homo sapiens, UniProt P20815); assay: as above; type: biochemical
CYP1A2 [2] = molecular target: T1, CYP1A2; conditions: 50 µM menadione; parathion 200 µM
[3] = type: in vivo, rat; conditions: menadione 20 min after parathion; 60 min
recombinant human CPR = molecular target: T3, recombinant human CPR (Homo sapiens, UniProt P16435); assay: CPR-mediated redox cycling, hydroxyl radical formation; type: biochemical; conditions: menadione; Fe/EDTA, terephthalate
T3 sequence (P16435 1-677): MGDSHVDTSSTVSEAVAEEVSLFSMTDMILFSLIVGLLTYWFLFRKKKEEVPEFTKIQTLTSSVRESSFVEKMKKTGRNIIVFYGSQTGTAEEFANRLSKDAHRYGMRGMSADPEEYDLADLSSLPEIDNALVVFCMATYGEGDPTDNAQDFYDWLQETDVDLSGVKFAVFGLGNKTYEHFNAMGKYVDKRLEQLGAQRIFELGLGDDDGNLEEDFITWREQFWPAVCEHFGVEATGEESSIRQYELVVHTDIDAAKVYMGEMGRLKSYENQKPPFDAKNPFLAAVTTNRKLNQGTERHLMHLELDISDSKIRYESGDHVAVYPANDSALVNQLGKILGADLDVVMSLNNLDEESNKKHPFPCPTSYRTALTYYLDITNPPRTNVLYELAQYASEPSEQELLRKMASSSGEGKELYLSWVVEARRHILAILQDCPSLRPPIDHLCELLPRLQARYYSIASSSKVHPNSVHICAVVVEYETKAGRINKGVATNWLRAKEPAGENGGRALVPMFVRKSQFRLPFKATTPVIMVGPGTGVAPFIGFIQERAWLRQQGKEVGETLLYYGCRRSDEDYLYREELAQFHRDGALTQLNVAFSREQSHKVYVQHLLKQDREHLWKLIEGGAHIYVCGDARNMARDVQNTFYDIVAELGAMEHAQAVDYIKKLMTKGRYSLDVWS

female Long-Evans rats = conditions: menadione 40 mg/kg ip 20 min after parathion 8 mg/kg oral

CYP2C19, sequence (P33261 whole entry, one chain of several): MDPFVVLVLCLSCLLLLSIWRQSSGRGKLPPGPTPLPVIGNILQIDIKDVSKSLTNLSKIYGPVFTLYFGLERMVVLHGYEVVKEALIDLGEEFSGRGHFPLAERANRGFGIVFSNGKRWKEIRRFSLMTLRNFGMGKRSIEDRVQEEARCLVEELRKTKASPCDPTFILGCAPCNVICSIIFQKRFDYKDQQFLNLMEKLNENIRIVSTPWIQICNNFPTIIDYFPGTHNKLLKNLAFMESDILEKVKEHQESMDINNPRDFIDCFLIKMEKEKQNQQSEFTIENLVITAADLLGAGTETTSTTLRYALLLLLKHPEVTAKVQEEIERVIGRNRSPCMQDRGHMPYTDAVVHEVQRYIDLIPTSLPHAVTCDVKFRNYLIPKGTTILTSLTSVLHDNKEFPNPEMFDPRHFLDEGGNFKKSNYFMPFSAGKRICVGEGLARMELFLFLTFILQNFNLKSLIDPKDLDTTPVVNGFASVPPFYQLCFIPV
CYP3A5, sequence (P20815 whole entry, one chain of several): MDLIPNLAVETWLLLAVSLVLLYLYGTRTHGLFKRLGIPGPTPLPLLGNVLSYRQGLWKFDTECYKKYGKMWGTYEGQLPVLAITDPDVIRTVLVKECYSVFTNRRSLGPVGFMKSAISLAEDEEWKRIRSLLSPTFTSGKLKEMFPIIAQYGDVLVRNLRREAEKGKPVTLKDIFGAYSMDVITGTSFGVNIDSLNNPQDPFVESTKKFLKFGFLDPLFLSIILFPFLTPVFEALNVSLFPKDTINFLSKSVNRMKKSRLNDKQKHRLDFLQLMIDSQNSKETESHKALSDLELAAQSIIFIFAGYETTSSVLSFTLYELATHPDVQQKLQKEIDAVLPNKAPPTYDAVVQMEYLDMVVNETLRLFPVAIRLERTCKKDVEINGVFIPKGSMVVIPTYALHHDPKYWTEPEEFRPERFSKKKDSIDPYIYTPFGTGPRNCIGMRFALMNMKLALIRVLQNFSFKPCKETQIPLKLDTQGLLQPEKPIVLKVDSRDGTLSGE

CC1=CC(=O)c2ccccc2C1=O [menadione, 2-methylnaphthalene-1,4-dione]
IC50 (CYP2C19): 8.51 ± 0.38 µM
inhibition of liver Ces by parathion (liver Ces): reduced the inhibition
paraoxon formation (CYP1A2 [1]): marked decrease
forebrain ChE inhibited (brain ChE): 11%
hindbrain ChE inhibited (brain ChE): 17%
IC50 (CYP1B1): 7.02 ± 0.53 µM
IC50 (CYP3A5): 9.77 ± 3.33 µM
CYP1A2 mediated activation of parathion and AChE inhibition (CYP1A2 [2]): completely abolished
liver levels of parathion [3]: without altering
parathion in blood [3]: striking increase
serum and brain parathion levels [3]: significant increases
Vmax for formation of 2-hydroxyterephthalate, a marker of hydroxyl radicals (recombinant human CPR): 1.2 µmol/min/mg CPR protein
parathion toxicity (startle response, tremulous jaw movement, tremors and convulsions) (female Long-Evans rats): marked reduction
